Data published in patent US6716596B2, “Agents for replacement of NAD+/NADH system in enzymatic reactions” (The Regents of the University of California, priority 2001, dated 2004).
Where a name gives a salt, the structure may show the parent alone.

What was measured:
[1] = stability observations (light, air, solvent); format: physicochemical
[2] = molecular target: T1, horse liver alcohol dehydrogenase (HLADH) (Equus caballus, UniProt P00327); assay: biomimetic reduction of norcamphor (racemic); format: biochemical; conditions: for exo/endo alcohols formed from norcamphor enantiomer: reaction with the biomimics of the invention
T1 construct: purchased Sigma
T1 sequence (P00327 2-375 limits assumed): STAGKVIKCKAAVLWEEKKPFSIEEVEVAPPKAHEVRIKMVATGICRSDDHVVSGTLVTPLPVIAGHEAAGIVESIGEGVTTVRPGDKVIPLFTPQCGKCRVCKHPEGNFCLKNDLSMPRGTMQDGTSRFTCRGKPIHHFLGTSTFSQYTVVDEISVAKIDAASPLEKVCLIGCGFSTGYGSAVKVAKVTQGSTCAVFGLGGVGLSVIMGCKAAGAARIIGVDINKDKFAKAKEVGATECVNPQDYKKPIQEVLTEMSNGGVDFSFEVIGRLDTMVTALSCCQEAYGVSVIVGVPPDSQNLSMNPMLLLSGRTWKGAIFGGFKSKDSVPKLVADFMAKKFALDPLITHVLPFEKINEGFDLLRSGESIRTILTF
Method: Biomimic yield expressed in equivalent was 86% corresponding to NAD^+ yield of 94% under the same conditions.
(§1) [Cp*Rh(bpy)(H2O)]OTf2 (1.9 mg, 2.61×10^−3 mmol), sodium formate (17.8 mg, 261.69×10^−3 mmol), NAD^+ (8.1 mg, 11.23×10^−3 mmol) and HLADH (10 units) were placed in a 10 mL Schlenk flask, and Schlenk techniques were followed to deoxygenate the solid mixture.
(§2) Under positive argon pressure, 5 mL of potassium phosphate buffer (100 mM, pH=7.02, deoxygenated) and carbonyl substrate (83.58×10^−3 mmol, deoxygenated) were added via syringe. The reaction flask was immediately securely capped with a glass-stopper and shaken with a shaker in 30° C. water-bath. The reaction was monitored by gas chromatography (GC), equipped with a β-cyclodextrin column (Supelco, β-DEX-225), and the products were identified by comparing the retention time with the corresponding authentic chiral samples and were confirmed by GC-MS. The enantiomeric excess of the products was determined directly by their relative area in the chromatogram. The progress of the reaction was obtained by mixing the reaction aliquot with an internal standard (cyclohexanol in phosphate buffer), and then calibrating the measured relative area in the chromatogram with their corresponding response factors. The reaction was monitored for 24 hours.
The procedure described in section A is equally applicable to reduction of racemic compounds such as norcamphor, seen in FIG. 8. The method requires the following modification. Due to the sublimation of norcamphor in vacuo, the addition of norcamphor was conducted under positive argon pressure, followed by the addition of phosphate buffer via syringe.

[3] = regioselective reduction of biomimics with catalyst precursor (2) and sodium formate, followed by 1H NMR; conditions: for catalytic hydride transfer: reduction with (2) and HCO2Na, 1H NMR; for turnover frequency (TOF) in the regioselective reduction: reduction to 1,4-dihydro derivative, NAD+ under the same conditions
Method: The relative rates, seen tabulated in FIG. 1C, were determined by observing disappearance of the pyridinium signals versus an internal standard, [(CH3)4N]OTf (tetramethylammonium triflate), during the first 2 hours, where the relative rate of 1-benzylnicotinamide triflate (1) was set to 1.0. The turnover frequencies were calculated by the formation of mmol of product/mmol of catalyst/hour. The total turnover number in 24 hours was ˜95 for all substrates that gave product. The reactions were conducted in presilylated J. Young NMR tubes and were followed by ^1H NMR.
The electronic effect of differently substituted nicotinamide substrates was determined by their relative rates. The relative rates of these compounds were determined by observing the disappearance of the pyridinium signals compared to interval standard, [(CH3)4N]OTf, during the first 2 hours, where the relative rate of compound (1a) was 1.0.
In a typical reaction, a J. Young NMR tube was charged, biomimic substrates (1a)-(1i) (1.0 mol), 2 (1% mol), and HCO2Na (1.1 mol) used as the hydride source and a Schlenk techniques were conducted to deoxygenate the solid mixture. A diluted solvent was added to these solids for compounds (1a)-(1i), the solvent was D2O-THF-d8 (1=1 0.75 mL, deoxygenated), and the NMR tube was placed in a liquid nitrogen bath. The contents were further degassed by two successive freeze-pump-thaw cycles. After thawing out the reaction mixture, the J. Young NMR tube was immediately put in a salted ice-bath and covered with aluminum foil. The reaction was then followed by ^1H NMR spectroscopy at 26° C. temperature, after a speedy thawing out.
The given relative rates and turnover frequencies were determined by decreasing integration of the corresponding pyridinium salts measured against an internal standard, (CH3)4N(OTf), during the first 2 h of the reaction. The ratios of the 1,4- and 1,6-dihydronicotinamide derivatives of compounds (1a), (1b) and (1d)-(1g) were obtained by comparison of the resonance signals with those of authentic samples, where the diagnostic signal is the resonance for —CH2Ph moiety which can be identified unambiguously in the ^1H NMR spectrum.

[4] = competitive regioselective substrate reduction experiments with rhodium catalyst precursor (2); conditions: for times faster than compound (1): competitive reduction with compound (1); for competitive rate: reduced in the presence of compound (1a)
Method: In order to establish whether the σ-donating ability or the electron-withdrawing effect of the 3-substituent of the 1-benzylnicotinamide was the important parameter, several competitive substrate reduction experiments were performed.
For this purpose, the compound (1a) 1-benzylnicotinamide, was reduced with rhodium catalyst precursor (2) in the presence of its alternatively substituted derivatives, compounds (1e), substituted with —C(O)—CH3, (1g), substituted with (—CN), (1d), substituted with —C(S)NH2 or (1f), substituted with —C(O)OCH3, and their competitive reduction was determined.

[5] = molecular target: T1, horse liver alcohol dehydrogenase (HLADH); assay: HLADH enzymatic chiral reduction of ketones with biomimic co-factor regeneration; format: biochemical; conditions: for turnover frequency of chiral ketone reduction: ketone (12) reduced by HLADH with co-factor regeneration, 24 hours
Method: FIG. 7 presents structures of ketone substrates 12-15 used for biomimic chiral synthesis of corresponding alcohols. Conversion of the substrates 12-15 to their corresponding alcohols are expressed in % yield, and TOF in d^−1 and S-enantiomer excess (ee) are also shown for each conversion. Corresponding values obtained with NAD^+ are given in parenthesis. The S-enantiomeric excess (ee) was determined by GLC with a modified β-cyclodextrin capillary column.
as §1, §2
The same procedure as described in section A was followed, except that NAD^+ was substituted with any one of the biomimic compounds of the invention.

[6] = UV-vis kinetics of the regioselective reduction with rhodium catalyst precursor (2) and formate; conditions: for TOF / ri initial rate: 294° K, H2O at pH 6.54, substrate 1.55 × 10^−3 M; for ri initial rate: average of two runs; for initial rate, times higher than compound (1) in THF/H2O (1:1): acqueous medium, comparable concentrations
From the text: The kinetics of the regioselective reduction reactions were further studied utilizing UV-vis techniques with the two biomimic compounds (1) and (6) and the results were compared to NAD^+ itself. Experimental conditions are described in Example 9.
The effect of the initial rate (ri) at low conversions to the 1,4-dihydro product (˜10%) was ascertained by varying the amount of substrate precatalyst (2) and sodium formate concentrations.
The initial rates (ri) of formation of compound (3) were obtained from plots of concentration (absorbance at 354 nm/ε) versus time at low conversions (˜10%). The values of kcat were calculated at 299° K.
Rates were obtained via UV-vis techniques and are an average of two runs.
This example describes studies producing kinetic and thermodynamic data for 1-benzylnicotinamide triflate (1a) performed in THF/H2O, 1:1, β-nicotinamide -5′-ribose methyl phosphate (6) H2O, pH=6.5, and NAD^+ performed in the regioselective reduction with [Cp*Rh(bpy)H2O)][OTf]2, 2 and in the presence of formate ion.
The kinetic experiments were carried out on a Hewlett Packard 8452A Diode Array Uv-Vis spectrophotometer, attached to a circulating water bath (VWR 1160). For experiments conducted at different temperatures, the circulating water bath, as well as the UV-vis instrument, were warmed up for at least an 1 hour before the kinic studies were initiated.
The 1-benzylnicotinamide triflate (1a) [CP*Rh(bpy)(H2O)][OTf]2 (2) and 1-benzyl-1,4 dihydronicotinamide (3) were synthesized by methods as described in Examples 2, 4 and 7. The NAD^+ and 1,4-NADH compounds were purchased from Sigma and used as received. The THF was distilled from Na and deoxygenate with N2 gas for 1 hour. Distilled water was purchased from Aldrich Chemical Co and deoxygenate prior to being used. A solution of THF/H2O (similar for 1:1 or 1:4 ratios) was used for all the kinetic experiments performed for compounds of 1-benzylnicotinamide type, unless otherwise specified. A stock solution of biomimic (1a) (0.018 M), 2 (6.23×10^−3 M), and sodium formate (0.25 M) were made for the kinetic experiments in THF/H2O (1:1).
A solution of 1-benzylnicotinamide triflate (1a), (4.29×10^−3 M) and sodium formate (0.0539) was made in a volumetric flask (10 mL) under N2 in a THF/H2O (1:1) mixture. The different concentration of biomimic (1a) and sodium formate used for the kinetic experiments are reported above.
A 3.0 mL aliquot of this solution was transferred to a thermostated UV-vis cell by using an air-free syringe, which was also purged with N2 gas. The sample was then brought to the desired temperature for 30-60 min in the UV-vis spectrophotometer thermostated cell holder. Then, 23 μL of a 6.23×10^−3 M stock solution of [CP*Rh(bpy)(H2O)^2+ (2), was added-by syringe under a positive N2 pressure, quickly mixed with the solution, and the absorbance increase at 354 nm was immediately recorded. The experiment was carried out for 2 hours and the formation of the product, 1-benzyl-1,4-dihydronicotinamide, (3) was followed, with the change in absorbance being recorded every 90 seconds. Some kinetic experiments were carried out until all the starting material was converted to product. The induced volume change was taken into account for the calculation of the turnover frequency (TOF).
The kinetic experiments for the β-nicotinamide-5′-ribose methyl phosphate (6) and natural NAD^+ were performed using the same general procedure described above. These kinetic experiments were carried out in H2O and the concentration of β-nicotinamide-5′-ribose methyl phosphate (6) or NAD^+, sodium formate, and [Cp*Rh(bpy)(H2O)]^2+ (2), were in the order of 1.50×10^−3, 0.0186 M, and 1.42×10^−5 M, respectively. The λmax for the β-nicotinamide-5′-ribose methyl phosphate, (6), and natural NAD^+ was 336 nm. In all the initial rate plots, time =0 s was removed from the plots of Concentration versus Time. The standard deviation of the ri were calculated from 2σ values.

Compound: COP(=O)(O)OC[C@H]1O[C@@H](N2C=CCC(C(N)=O)=C2)[C@H](O)[C@@H]1O
- stability [1]: both light- and air-sensitive

Compound: O=C1CC2CC[C@H]1C2 (racemic) [Compound 16, norcamphor]
- exo/endo alcohols formed from norcamphor enantiomer [2]: exclusively the endo alcohol

Compound: O=C1CC2CC[C@H]1C2 (racemic) [Compound 17, norcamphor]
- exo/endo alcohols formed from norcamphor enantiomer [2]: approximately equal mixture of exo and endo alcohols

Compound: C[n+]1cccc(C(N)=O)c1 [1-methylnicotinamide, 1-Methylnicotinamide Triflate Salt]
- relative rate ratio of 1-benzyl/1-methylnicotinamide [3]: 2.0
- relative rate of regioselective reduction ([3]; disappearance of pyridinium signals vs [(CH3)4N]OTf during first 2 hours, compound (1a) set to 1.0): 0.5

Compound: CCN(CC)C(=O)c1ccc[n+](Cc2ccccc2)c1 [Compound 1c, 1-Benzyl-N,N-diethylnicotinamide, Triflate Salt]
- catalytic hydride transfer [3]: not observed

Compound: NC(=S)c1ccc[n+](Cc2ccccc2)c1 [Compound 1d, 1-Benzylthionicotinamide, Triflate Salt]
- times faster than compound (1) [4]: 1.3 times

Compound: CC(=O)c1ccc[n+](Cc2ccccc2)c1.O=S(=O)([O-])C(F)(F)F [Compound 1e, 1-Benzyl-3-acetylpyridinium Triflate]
- competitive rate [4]: 0.9

Compound: COC(=O)c1ccc[n+](Cc2ccccc2)c1.O=S(=O)([O-])C(F)(F)F [Compound 1f, 1-Benzyl-3-carbomethoxypyridinium Triflate]
- times faster than compound (1) [4]: 1.2 times

Compound: N#Cc1ccc[n+](Cc2ccccc2)c1.O=S(=O)([O-])C(F)(F)F [Compound 1g, 1-Benzyl-3-cyanopyridinium triflate]
- competitive rate [4]: 0.8

Compound: Cc1ccc[n+](Cc2ccccc2)c1.O=S(=O)([O-])C(F)(F)F [Compound 1h, 1-Benzyl-3-methylpyridinium triflate]
- catalytic hydride transfer [3]: not observed

Compound: O=S(=O)([O-])C(F)(F)F.c1ccc(C[n+]2ccccc2)cc1 [Compound 1i, 1-Benzyl-pyridinium triflate]
- catalytic hydride transfer [3]: not observed

Compound: NC(=O)C1=CN(Cc2ccccc2)C=CC1 [Compound 3, 1-benzyl-1,4-dihydronicotinamide]
- recognition by HLADH as hydride catalyst of the chiral conversion [5]: recognizes

Compound: COP(=O)([O-])OC[C@H]1O[C@@H]([n+]2cccc(C(N)=O)c2)[C@H](O)[C@@H]1O [Compound 6, β-nicotinamide ribose-5′-methyl phosphate]
- TOF, times higher than those of compounds (1a)-(1i) [3]: approximately 2.5 times
- TOF, times higher than 1-benzylnicotinamide ([3]; in water vs 1-benzylnicotinamide in THF/water): about 2.5 times
- turnover frequency (TOF) in the regioselective reduction [3]: 20 h⁻¹
- TOF [6]: 7 h⁻¹
- ri initial rate [6]: 2.82e-08 M/s
- initial rate, times higher than compound (1) in THF/H2O (1:1) [6]: ~3 times
- recognition by HLADH as hydride catalyst of the chiral conversion [5]: recognizes
- turnover frequency of chiral ketone reduction [5]: ~30 day⁻¹
- stability [1]: light-sensitive and somewhat air-sensitive

Compound: CC(=O)Cc1ccccc1 [Compound 13, benzylmethylketone]
- enantiomeric excess of chiral alcohol from the ketone substrate, S-enantiomer [5]: > 99 % ee

Compound: CC(=O)c1ccccc1 [Compound 14, acetophenone]
- enantiomeric excess of chiral alcohol from the ketone substrate, S-enantiomer [5]: > 96 % ee
- yield of chiral product [5]: 5%

Compound: NC(=O)C1=CN([C@@H]2O[C@H](COP(=O)(O)OP(=O)(O)OC[C@H]3O[C@@H](n4cnc5c(N)ncnc54)[C@H](O)[C@@H]3O)[C@@H](O)[C@H]2O)C=CC1 [NAD^+, β-Nicotinamide adenine dinucleotide, reference compound]
- turnover frequency (TOF) in the regioselective reduction [3]: 18 h⁻¹
- TOF [6]: 9 h⁻¹
- ri initial rate [6]: 3.1e-08 M/s
- initial rate, times higher than compound (1) in THF/H2O (1:1) [6]: ~3 times
- turnover frequency of chiral ketone reduction [5]: ~30 day⁻¹
- yield of norcamphor reduction expressed in equivalent ([2]; racemic norcamphor, same conditions for NAD^+): 94%

Compound: [Cp*Rh(η^2-(N,N)-2,2′-bipyridyl)(H2O)](OTf)2 [Compound 2]
- stability [1]: stable as a solid in the air
